Measured values reported in US20230416248A1, “COMPOUNDS AND USES THEREOF” (Foghorn Therapeutics Inc., priority 2020, published 2023).
Read-outs that look alike come from different tables or passages of the source.

What was measured:
[1] = target: T1, BRM (Homo sapiens, UniProt P51531); experiment: ATPase catalytic activity of BRM, ADP-Glo in vitro biochemical assay; conditions: for IC50: 30 nM BRM, 400 μM ATP; for Ratio* (BRG1 IC50 (μM) divided by BRM IC50 (μM)): selectivity ratio BRG1 IC50 / BRM IC50
T1 construct: made in house; host or cells: High Five insect cells
Method in brief: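 ADP-Glo luminescence, after depletion of leftover ATP and conversion of ADP, reported the activity. The 1 h room-temperature reaction held 400 μM ATP, 20 nM salmon sperm DNA and 30 nM BRM in 20 mM Tris pH 8, 20 mM MgCl2, 50 mM NaCl, 0.1% Tween-20, 1 mM DTT.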

[2] = target: T2, BRG-1 (Homo sapiens, UniProt P51532); experiment: ATPase catalytic activity of BRG-1, ADP-Glo in vitro biochemical assay; conditions: 30 nM BRG-1, 400 μM ATP, read-out: BRG1 IC50
T2 construct: made in house; host or cells: High Five insect cells
Method in brief: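 Luminescence read-out: ADP formed by BRG-1 ATPase is converted to ATP and detected by luciferase. Residual ATP is first removed with ADP-Glo Reagent for 40 min at RT; detection reagent is then incubated 60 min at RT before reading.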

[3] = ATPase catalytic activity, ADP-Glo

T1 sequence (P51531 whole entry): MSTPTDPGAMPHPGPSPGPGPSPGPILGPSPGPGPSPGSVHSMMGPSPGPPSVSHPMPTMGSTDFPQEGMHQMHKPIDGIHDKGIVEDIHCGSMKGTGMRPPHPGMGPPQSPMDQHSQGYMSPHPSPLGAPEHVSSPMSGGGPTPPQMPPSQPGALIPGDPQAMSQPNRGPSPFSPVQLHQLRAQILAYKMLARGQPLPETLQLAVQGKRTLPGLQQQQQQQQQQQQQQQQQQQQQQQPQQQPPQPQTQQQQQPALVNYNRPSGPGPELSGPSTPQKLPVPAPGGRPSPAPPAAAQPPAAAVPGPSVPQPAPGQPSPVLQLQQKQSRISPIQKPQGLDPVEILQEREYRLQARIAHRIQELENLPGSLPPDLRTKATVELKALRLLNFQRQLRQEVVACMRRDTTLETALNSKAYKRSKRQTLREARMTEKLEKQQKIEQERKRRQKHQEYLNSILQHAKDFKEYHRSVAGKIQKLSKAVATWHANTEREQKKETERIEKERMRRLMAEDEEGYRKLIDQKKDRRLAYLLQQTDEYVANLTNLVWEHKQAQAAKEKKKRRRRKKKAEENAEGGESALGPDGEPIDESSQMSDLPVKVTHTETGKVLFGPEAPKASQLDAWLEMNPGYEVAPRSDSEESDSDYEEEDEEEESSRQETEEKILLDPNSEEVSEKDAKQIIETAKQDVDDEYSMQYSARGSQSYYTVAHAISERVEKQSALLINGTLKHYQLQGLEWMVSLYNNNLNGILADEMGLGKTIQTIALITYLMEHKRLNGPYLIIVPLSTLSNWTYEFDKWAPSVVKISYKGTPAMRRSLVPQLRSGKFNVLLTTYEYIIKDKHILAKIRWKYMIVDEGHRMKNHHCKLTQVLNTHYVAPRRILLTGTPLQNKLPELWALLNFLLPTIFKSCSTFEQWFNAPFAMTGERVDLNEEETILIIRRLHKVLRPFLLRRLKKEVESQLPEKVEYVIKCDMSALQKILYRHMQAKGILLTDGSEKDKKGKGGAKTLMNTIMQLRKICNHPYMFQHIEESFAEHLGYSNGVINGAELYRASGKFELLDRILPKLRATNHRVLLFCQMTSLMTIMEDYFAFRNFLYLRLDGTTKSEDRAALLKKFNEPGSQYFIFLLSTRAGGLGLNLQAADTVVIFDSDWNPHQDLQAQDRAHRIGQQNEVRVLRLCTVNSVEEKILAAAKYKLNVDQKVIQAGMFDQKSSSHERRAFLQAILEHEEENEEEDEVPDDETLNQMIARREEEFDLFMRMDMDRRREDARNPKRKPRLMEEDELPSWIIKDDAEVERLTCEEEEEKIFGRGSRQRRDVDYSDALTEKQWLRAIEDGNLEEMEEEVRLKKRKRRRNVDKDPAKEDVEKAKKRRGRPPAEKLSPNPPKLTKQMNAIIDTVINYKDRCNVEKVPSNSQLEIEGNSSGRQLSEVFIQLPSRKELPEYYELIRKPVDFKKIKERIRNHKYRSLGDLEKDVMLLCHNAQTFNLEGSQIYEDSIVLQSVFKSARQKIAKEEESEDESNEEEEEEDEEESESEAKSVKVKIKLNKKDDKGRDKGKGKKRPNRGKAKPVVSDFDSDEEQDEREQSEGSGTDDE
T2 sequence (P51532 whole entry): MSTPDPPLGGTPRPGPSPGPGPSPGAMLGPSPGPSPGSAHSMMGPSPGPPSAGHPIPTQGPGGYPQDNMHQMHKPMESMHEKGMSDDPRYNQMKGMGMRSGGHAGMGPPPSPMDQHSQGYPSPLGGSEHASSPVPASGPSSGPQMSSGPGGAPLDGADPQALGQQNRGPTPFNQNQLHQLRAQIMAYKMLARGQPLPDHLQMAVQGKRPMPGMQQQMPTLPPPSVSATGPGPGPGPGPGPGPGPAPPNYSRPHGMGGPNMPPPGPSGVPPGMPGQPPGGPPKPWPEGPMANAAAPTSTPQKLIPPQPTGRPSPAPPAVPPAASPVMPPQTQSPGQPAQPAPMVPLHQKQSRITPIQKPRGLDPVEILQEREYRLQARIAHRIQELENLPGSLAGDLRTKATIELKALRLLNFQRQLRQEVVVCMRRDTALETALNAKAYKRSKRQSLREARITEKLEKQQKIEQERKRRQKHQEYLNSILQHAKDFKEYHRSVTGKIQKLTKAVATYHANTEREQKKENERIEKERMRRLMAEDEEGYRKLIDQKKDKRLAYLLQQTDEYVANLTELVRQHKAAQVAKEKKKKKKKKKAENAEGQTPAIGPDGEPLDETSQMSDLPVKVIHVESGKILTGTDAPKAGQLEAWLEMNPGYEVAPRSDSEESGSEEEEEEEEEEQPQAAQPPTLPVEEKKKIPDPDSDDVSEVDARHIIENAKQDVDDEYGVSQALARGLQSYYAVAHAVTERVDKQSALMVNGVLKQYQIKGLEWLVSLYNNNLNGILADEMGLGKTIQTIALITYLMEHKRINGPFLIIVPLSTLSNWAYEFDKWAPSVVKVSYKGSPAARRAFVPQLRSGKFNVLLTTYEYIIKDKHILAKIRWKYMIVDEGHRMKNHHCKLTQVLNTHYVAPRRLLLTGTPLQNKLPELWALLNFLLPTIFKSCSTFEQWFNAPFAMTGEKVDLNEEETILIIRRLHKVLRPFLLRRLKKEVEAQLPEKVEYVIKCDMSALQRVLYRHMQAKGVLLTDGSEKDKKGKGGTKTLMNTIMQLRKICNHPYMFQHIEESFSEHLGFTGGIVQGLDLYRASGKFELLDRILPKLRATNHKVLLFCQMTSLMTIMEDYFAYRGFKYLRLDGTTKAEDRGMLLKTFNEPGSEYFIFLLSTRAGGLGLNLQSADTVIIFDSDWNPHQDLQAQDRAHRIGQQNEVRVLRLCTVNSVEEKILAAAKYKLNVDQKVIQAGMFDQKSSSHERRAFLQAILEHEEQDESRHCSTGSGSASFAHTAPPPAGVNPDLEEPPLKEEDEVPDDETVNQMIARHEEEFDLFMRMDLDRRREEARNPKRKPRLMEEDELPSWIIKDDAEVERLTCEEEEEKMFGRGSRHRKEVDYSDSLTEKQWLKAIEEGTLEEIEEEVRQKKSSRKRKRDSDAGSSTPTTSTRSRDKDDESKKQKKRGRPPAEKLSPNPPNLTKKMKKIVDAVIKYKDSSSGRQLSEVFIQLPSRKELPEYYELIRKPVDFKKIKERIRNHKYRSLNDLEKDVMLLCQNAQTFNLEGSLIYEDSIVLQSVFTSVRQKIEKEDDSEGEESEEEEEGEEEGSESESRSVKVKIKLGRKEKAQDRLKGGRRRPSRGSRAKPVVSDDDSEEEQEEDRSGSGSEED

IC50 ([1]; ADP-Glo ATPase assay) [nM] | Ratio* (BRG1 IC50 (μM) divided by BRM IC50 (μM)) [1] | IC50 ([2]; ADP-Glo ATPase assay) [nM] | IC50 [1, 3] [nM] | Ratio* ([1]; ratio of BRG1 IC50 to BRM IC50) | IC50 [2, 3] [nM] | Ratio* ([1]; ratio BRG1 IC50 / BRM IC50) | Compound
22.7 | 20.63 | 468 | – | – | – | – | O=C(NCc1cc2nc(-c3cccc(OC(F)(F)F)n3)ccc2cn1)c1ccc2c(c1)S(=O)(=O)CCOC2 [Compound 237]
– | – | – | 11.6 | 15.53 | 181 | – | CC1COCc2ccc(C(=O)NCc3cc4nc(N5CCOc6cccnc65)ccc4cn3)cc2S1(=O)=O (stereo not drawn) [Compound 523]
11.1 | 12.29 | 136 | – | – | – | – | O=C(NCc1cc2nc(-c3cccc(N4CCOCC4)n3)ccc2cn1)c1ccc2c(c1)S(=O)(=O)CCOC2 [Compound 226]
– | – | – | 215 | 7.79 | 1680 | – | C/C(F)=C/c1ccc(C(=O)NCc2cc3nc(-c4cccc(N5C[C@@H](C)O[C@@H](C)C5)n4)ccc3cn2)cc1S(C)(=O)=O [Compound 475]
34.6 | 19.65 | 681 | – | – | – | – | C[C@@H]1CN(c2cccc(-c3ccc4cnc(CNC(=O)c5cc(C6CC6)c6c(c5)S(=O)(=O)CCOC6)cc4n3)n2)C[C@H](C)O1 [Compound 75]
– | – | – | 7.4 | 10.32 | 76.4 | – | Cc1cnc2c(c1C)CCCN2c1ccc2cnc(CNC(=O)c3ccc4c(c3)S(=O)(=O)CCOC4)cc2n1 [Compound 429]
147 | 9.21 | 1350 | – | – | – | – | CN1CCN(c2cccc(-c3ccc4cnc(CNC(=O)c5ccc6c(c5)S(=O)(=O)CCOC6)cc4n3)n2)CC1 [Compound 144]
455 | 6.80 | 3090 | – | – | – | – | COc1nn([C@H]2C[C@@H](F)C2)cc1-c1ccc2cnc(CNC(=O)c3ccc4c(c3)S(=O)(=O)CCOC4)cc2n1 [Compound 148]
24.8 | 18.33 | 455 | – | – | – | – | CCOc1cccc(-c2ccc3cnc(CNC(=O)c4cc(F)c5c(c4)S(=O)(=O)CCOC5)cc3n2)n1 [Compound 49]
33.5 | 8.80 | 295 | – | – | – | – | CC(F)(F)COc1cccc(-c2ccc3cnc(CNC(=O)c4ccc5c(c4)S(=O)(=O)CCOC5)cc3n2)n1 [Compound 126]
– | – | – | 11.5 | 12.06 | 138 | – | COc1cnc2c(c1)CCCN2c1ccc2cnc(CNC(=O)c3ccc4c(c3)S(=O)(=O)CCOC4)cc2n1 [Compound 565]
– | – | – | 15.2 | 13.70 | 209 | – | CO[C@@H]1C[C@H]1N(C)c1cccc(-c2ccc3cnc(CNC(=O)c4ccc5c(c4)S(=O)(=O)[C@@H](C)COC5)cc3n2)n1 [Compound 672]
– | – | – | 67.2 | 12.50 | 839 | – | CO[C@@H](C)c1ccc2c(n1)N(c1ccc3cnc(CNC(=O)c4ccc5c(c4)S(=O)(=O)CCOC5)cc3n1)CCC2 [Compound 561]
26.2 | – | 303 | – | – | – | 11.56 | O=C(NCc1cc2nc(N3CCOc4cc(C5CC5)c(F)c(F)c43)ccc2cn1)c1ccc2c(c1)S(=O)(=O)CCOC2 [Compound 805]
27.9 | – | 713 | – | – | – | 25.53 | O=C(NCc1cc2nc(N3CCOc4cc(F)c(C(F)F)nc43)ccc2cn1)c1ccc2c(c1)S(=O)(=O)CCOC2 [Compound 781]
80.5 | 9.55 | 769 | – | – | – | – | O=C(NCc1cc2nc(-c3cccc(N4CCC(F)(F)CC4)n3)ccc2cn1)c1ccc2c(c1)S(=O)(=O)CCOC2 [Compound 184]
91.1 | – | 2110 | – | – | – | 23.18 | C[C@@H]1CN(c2cccc(-c3ccc4cnc(CNC(=O)c5ccc6c(c5)S(=O)(=O)CCC5(CC5)O6)cc4n3)n2)C[C@H](C)O1 [Compound 704]

IC50 ([1]; ADP-Glo ATPase assay) [nM] | Ratio* (BRG1 IC50 (μM) divided by BRM IC50 (μM)) [1] | IC50 ([2]; ADP-Glo ATPase assay) [nM] | IC50 [1, 3] [nM] | Ratio* ([1]; ratio of BRG1 IC50 to BRM IC50) | IC50 [2, 3] [nM] | Ratio* ([1]; ratio BRG1 IC50 / BRM IC50) | Compound
– | – | – | 15 | 15.10 | 226 | – | COC[C@H]1C[C@@H](N(C)c2cccc(-c3ccc4cnc(CNC(=O)c5ccc6c(c5)S(=O)(=O)CCOC6)cc4n3)n2)C1 [Compound 436]
186 | 13.28 | 2460 | – | – | – | – | COc1nn([C@H]2C[C@@H](F)C2)cc1-c1ccc2cnc(CNC(=O)c3ccc4c(c3)S(=O)(=O)CCOC4)cc2c1 [Compound 134]
– | – | – | 263 | 13.96 | 3670 | – | CO[C@H](C)Cn1ccc2c(-c3ccc4cnc(CNC(=O)c5ccc6c(c5)S(=O)(=O)CCOC6)cc4n3)ccnc21 [Compound 448]
105 | 7.17 | 751 | – | – | – | – | O=C(NCc1cc2nc(-c3ccccc3OC(F)F)ccc2cn1)c1ccc2c(c1)S(=O)(=O)CCOC2 [Compound 250]
– | – | – | 17.1 | 18.96 | 324 | – | CO[C@H]1C[C@H]1N(C)c1cccc(-c2ccc3cnc(CNC(=O)c4ccc5c(c4)S(=O)(=O)[C@@H](C)COC5)cc3n2)n1 [Compound 669]
– | – | – | 25.5 | 9.80 | 250 | – | O=C(NCc1cc2nc(N3CCCc4c(Cl)ccnc43)ccc2cn1)c1ccc2c(c1)S(=O)(=O)CCOC2 [Compound 478]
– | – | – | 6.3 | 5.55 | 34.8 | – | C[C@]1(F)CCCN(c2cccc(-c3ccc4cnc(CNC(=O)c5ccc6c(c5)S(=O)(=O)CCOC6)cc4n3)n2)C1 [Compound 317]
82.8 | 19.92 | 1650 | – | – | – | – | CC(F)(F)c1cccc(-c2ccc3cnc(CNC(=O)c4ccc5c(c4)S(=O)(=O)CCOC5)cc3n2)n1 [Compound 281]
18.8 | – | 190 | – | – | – | 10.11 | O=C(NCc1cc2nc(-c3cccc(N4CC(C5(F)COC5)C4)n3)ccc2cn1)c1ccc2c(c1)S(=O)(=O)CCOC2 [Compound 797]
34 | 12.93 | 440 | – | – | – | – | O=C(NCc1cc2nc(-c3cncc(C4CC4)n3)ccc2cn1)c1ccc2c(c1)S(=O)(=O)COCC2 [Compound 236]
325 | 6.16 | 2000 | – | – | – | – | O=C(NCc1cc2nc(-c3ccccc3Cl)ccc2cn1)c1ccc2c(c1)S(=O)(=O)CCOC2 [Compound 247]
21.4 | – | 222 | – | – | – | 10.40 | O=C(NCc1cc2nc(N3CCCc4c(N5CCC5)ccnc43)ccc2cn1)c1ccc2c(c1)S(=O)(=O)CCOC2 [Compound 814]
– | – | – | 17.1 | 13.46 | 230 | – | COC1(CN(C)c2cccc(-c3ccc4cnc(CNC(=O)c5ccc6c(c5)S(=O)(=O)CCOC6)cc4n3)n2)CC1 [Compound 323]
180 | 7.72 | 1390 | – | – | – | – | C[C@H]1COCCN1c1cccc(-c2ccc3cnc(CNC(=O)c4ccc5c(c4)S(=O)(=O)CCOC5)cc3n2)n1 [Compound 178]
– | – | – | 11 | 43.09 | 473 | – | CCOc1cccc(-c2ccc3cnc(CNC(=O)c4ccc5c(c4)S(=O)(=O)[C@@H](C)COC5)cc3n2)n1 [Compound 330]
397 | – | 2880 | – | – | – | 7.26 | COCCN1CCc2ccc(-c3ccc4cnc(CNC(=O)c5ccc6c(c5)S(=O)(=O)CCOC6)cc4n3)nc2C1 [Compound 772]
221 | 18.63 | 4120 | – | – | – | – | O=C(NCc1cc2nc(-c3cccc(Cl)c3)ccc2cn1)c1ccc2c(c1)S(=O)(=O)CCOC2 [Compound 258]
